{"source": "patent US20210180023A1", "about": "“CARDIAC REPAIR BY REPROGRAMMING OF ADULT CARDIAC FIBROBLASTS INTO CARDIOMYOCYTES” (The Board of Regents of the University of Texas System, priority 2017, published 2021)", "key": {"[1]": {"system": "adult tail-tip fibroblasts (TTFs) from αMHC-GFP mice", "test": "Human retroviral ORF cDNA library screen for AGHMT-mediated cardiac reprogramming (high-throughput imaging of αMHC-GFP and cTnT)", "assay_type": "cell-based, mouse", "settings": "individual cDNA expressed together with 5F (AGHMT), 9 days, Z-score ≥2 activator, ≤−2 inhibitor", "text": "Isolation of mouse tail-tip fibroblast. For isolation of adult mouse tail-tip fibroblasts, tails were cut from 8-12 weeks old adult wild-type or αMHC-GFP mouse and were minced into […] with razor blades after peeling off the superficial dermis. The minced tails were placed in fibroblast growth medium (DMEM supplemented with 10% FBS and 1% (vol/vol) penicillin/streptomycin). Tail-tip fibroblasts migrated out from the explants within 1 week and were passaged one time before use.\nConstruction of human retroviral ORFs library. Gateway-compatible Human ORFs pEntry vectors were purchased from Thermo Fisher Scientific. Gateway-compatible retroviral destination vector, pMXs-gw, was a gift from Shinya Yamanaka (Addgene plasmid #18656) (Takahashi, 2006). The inventors transferred each ORF individually into pMXs-gw by performing site-specific LR recombination using Gateway LR Clonase II Enzyme Mix kit (Thermo Fisher Scientific).\nRetroviruses production, cellular reprogramming and treatment. For retroviruses production, Platinum E cells were seeded into culture dishes (1×10^5 cells/cm2) one day before transfection in DMEM supplemented with 10% FBS and 1% penicillin/streptomycin. Cells reached ˜80% confluency on the day of transfection. DNA plasmids were transfected into Platinum E cells using FuGENE 6 transfection reagent. Twenty-four hours after transfection, wild type or αMHC-GFP tail-tip fibroblasts were seeded into culture dishes or plates that were precoated with SureCoat (Cellutron) for one hour at a density of 6×10^4/cm^2. Forty-eight hours after transfection, polybrene was added to viral medium that was filtered through a 0.45-μm filter at a concentration of […]. The mixture replaced the growth medium in the cell culture plate with tail-tip fibroblasts. The viral infection was serially repeated twice. Twenty-four hours after the second infection, the viral medium was replaced with induction medium, composed of DMEM/199 (4:1), 10% conditioned medium obtained from neonatal rat cardiomyocyte culture, 10% FBS, 5% horse serum, 1% penicillin/streptomycin, 1% nonessential amino acids, 1% essential amino acids, 1% B-27, 1% insulin-selenium-transferrin, 1% vitamin mixture, and 1% sodium pyruvate (Invitrogen). Small molecule treatments were used throughout the reprogramming process […] (Sigma).\nImmunocytochemistry. For immunocytochemistry, cells were fixed in 4% paraformaldehyde for 15 min and permeabilized with 0.1% Triton-X in room temperature. Cells were washed with PBS for three times followed by blocking with 10% goat serum for 1 hr. Cells then were incubated with mouse monoclonal anti-cardiac Troponin T (cTnT) antibody (Thermo Scientific) at 1:500 dilutions and rabbit anti-GFP antibody (Thermo Scientific) at 1:500 dilutions in 5% Goat serum for 1 hr. After washing with PBS three times, Cells then were incubated with donkey anti-mouse alexa fluor 647 (Invitrogen) at 1:500 and goat anti-rabbit Alexa fluor 488 at 1:500 (Invitrogen).\nIdentification of activators and inhibitors of cardiac reprogramming in adult fibroblasts. The inventors' previously optimized cardiac reprogramming protocol with five factors (AGHMT, also called 5F) was able to reprogram ˜3% efficiency of adult TTFs to iCMs as measured by activation of a cardiac-specific αMHC-GFP transgene and cardiac troponin T (cTnT) immunostaining (Zhou et al., 2015). To identify additional regulators of cardiac reprogramming, the inventors created a retroviral expression library consisting of 1,052 open reading frame (ORF) cDNAs representing 786 human transcription factor, cytokine, epigenetic regulator and nuclear receptor genes (Table 51). The inventors screened this expression library for activators and inhibitors of cardiac reprogramming by expressing individual cDNAs together with 5F in isolated TTFs from αMHC-GFP mice, as schematized in FIG. 1A. […]"}, "[2]": {"system": "αMHC promoter (αMHC-Luciferase)", "test": "αMHC-luciferase reporter assay in HEK293 cells", "assay_type": "cell-based", "text": "To determine if ZNF281 could directly activate cardiac genes, the inventors examined the ability of ZNF281 to activate a luciferase reporter controlled by the αMHC promoter (αMHC-Luciferase)."}, "[3]": {"system": "αMHC-GFP adult cardiac fibroblasts (CF)", "test": "Flow cytometry (FACS) of αMHC-GFP+ and cTnT+ adult cardiac fibroblasts after reprogramming", "assay_type": "cell-based, mouse", "settings": "ZNF281 added to 5F, adult CFs, 7 days", "description": "Flow Cytometry. For flow Cytometry, cells were trypsinized and fixed with fixation buffer (BD Bioscience) for 15 min on ice. Fixed cells were washed with Perm/Wash buffer (BD Bioscience) for three times. Washed cells were incubated with mouse monoclonal anti-cardiac Troponin T (cTnT) antibody (Thermo Scientific) at 1:200 dilution and Rabbit anti-GFP antibody (Thermo Scientific) at 1:200 dilution in Perm/Wash buffer for 1 hr on ice. Cells then were washed with Perm/Wash buffer for three times followed by incubation with donkey anti-mouse Alexa fluor 647 (Invitrogen) at 1:200 and goat anti-rabbit Alexa fluor 488 at 1:200 (Invitrogen). Cells were washed with Perm/Wash buffer, and then analyzed using FACS Caliber (BD Sciences) and FlowJo software.\nZNF281 enhances cardiac reprogramming of adult fibroblasts. PHF7 and ZNF281 were the two strongest activators identified from retroviral cDNA expression screen with 5F (FIG. 1D; Table S2). PHF7 is only expressed in the male germ line (Yang et al., 2012), whereas ZNF281 has a broad expression pattern with enriched expression in the heart (FIG. 51). The inventors therefore focused their initial attention on ZNF281 and explored its ability to enhance the activity of 5F. They refer to the reprogramming mix of 5F plus ZNF281 as 6F. The inventors validated the results of their screen by assessing GFP and cTnT expression in αMHC-GFP TTFs following 5F and 6F reprogramming after 7 days (FIG. 3A). […] This TTF reprogramming efficiency using 6F is noteworthy when considering the relatively low statistical likelihood of each fibroblast taking up all five or six separate retroviruses encoding the reprogramming factors. The inventors also examined the expression of cardiac and fibroblast transcripts by q-PCR. […] The addition of ZNF281 to 5F increased the expression of GFP and cTnT in αMHC-GFP CFs evaluated by immunocytochemistry after 7 days of reprogramming (FIG. 10A). […]"}}, "data": [{"substance": "Zinc finger protein 281 [ZNF281]", "values": [{"measurement": "cTnT Z-score", "setting": "[1]", "result": 7.0}, {"measurement": "αMHC Z-score", "setting": "[1]; αMHC-GFP", "result": 2.9}, {"measurement": "activation of αMHC-Luciferase reporter", "setting": "[2]; ZNF281 alone", "result": "~7", "unit": "fold"}, {"measurement": "activation of αMHC-Luciferase reporter", "setting": "[2]; ZNF281 co-expressed with GATA4", "result": "~15", "unit": "fold"}, {"measurement": "cTnT+ iCMs", "setting": "[3]", "result": "~45", "unit": "%"}, {"measurement": "αMHC-GFP+ iCMs", "setting": "[3]", "result": "~25", "unit": "%"}, {"measurement": "αMHC-GFP+/cTnT+ iCMs", "setting": "[3]", "result": "~21", "unit": "%"}]}]}
